In patent publication US20220003751A1, “METHOD FOR […] OF COLCHICINE-I[…]” (ASSISTANCE PUBLIQUE - HÔPITAUX DE PARIS, priority 2019, published 2022):

Key:
[1] = mortality rate by supposed ingested dose in colchicine overdose; format: in vivo, human
Procedure: Although the dose ingested has an influence on the clinical picture, it is not, by itself, enough to allow prediction of the death of the patient. Indeed, the mortality rate in the three groups of supposed ingested dose equal to or less than 0.35 mg/kg, >0.35—equal or less than 0.7, and >0.7 were 0 (0%), 6/33 (18%), and 12/36 (33%) (Fisher's exact test: p<0.0001). The relation of mortality rate to the dose is statistically highly significant albeit being weak. Therefore, from a clinical viewpoint, other parameters reflecting the effects of the dose should be considered to define the likelihood of death in colchicine overdose.

[2] = cited from earlier work

COc1cc2c(c(OC)c1OC)-c1ccc(OC)c(=O)cc1[C@@H](NC(C)=O)CC2 [colchicine, Colchicine]
mortality rate ([1]; supposed ingested dose >0.7 mg/kg, 12/36): 33% | mortality rate ([1]; supposed ingested dose >0.35 to equal or less than 0.7 mg/kg, 6/33): 18% | mortality rate ([1]; supposed ingested dose equal to or less than 0.35 mg/kg): 0% | acute dose presumed to be fatal [2]: about 0.8 mg/kg
